# Laboratory results taken from patent publication US20180002320A1, “USE OF MACROCYCLIC PICOLINAMIDES AS FUNGICIDES” (DOW AGROSCIENCES LLC, priority 2014, published 2018).
# Where two headings read alike, the source gives them in different places.
# Columns and labels:
# Zymoseptoria tritici = assay: Leaf Blotch of Wheat (SEPTTR) fungicidal activity; assay type: in vivo; settings: Low Volume (121.5 g/H)
# Description: Technical grades of materials were dissolved in acetone, which were then mixed with nine volumes of H2O containing 110 ppm Triton X-100. The fungicide solutions were applied onto wheat seedlings using an automated booth sprayer to run-off. All sprayed plants were allowed to air dry prior to further handling. All fungicides were evaluated using the aforementioned method for their activity vs. all target diseases, unless stated otherwise. Wheat leaf blotch and brown rust activity were also evaluated using track spray applications, in which case the fungicides were formulated as EC formulations, containing 0.1% Trycol 5941 in the spray solutions. Wheat plants (variety Yuma) were grown from seed in a greenhouse in 50% mineral soil/50% soil-less Metro mix until the first leaf was fully emerged, with 7-10 seedlings per pot. These plants were inoculated with an aqueous spore suspension of Zymoseptoria tritici either prior to or after fungicide treatments. After inoculation the plants were kept in 100% relative humidity (one day in a dark dew chamber followed by two to three days in a lighted dew chamber at 20° C.) to permit spores to germinate and infect the leaf. The plants were then transferred to a greenhouse set at 20° C. for disease to develop. When disease symptoms were fully expressed on the 1st leaves of untreated plants, infection levels were assessed on a scale of 0 to 100 percent disease severity. Percent disease control was calculated using the ratio of disease severity on treated plants relative to untreated plants.
# Puccinia triticina = assay: Wheat Brown Rust (PUCCRT) fungicidal activity; assay type: in vivo; settings: Low Volume (121.5 g/H)
# Description: Technical grades of materials were dissolved in acetone, which were then mixed with nine volumes of H2O containing 110 ppm Triton X-100. The fungicide solutions were applied onto wheat seedlings using an automated booth sprayer to run-off. All sprayed plants were allowed to air dry prior to further handling. All fungicides were evaluated using the aforementioned method for their activity vs. all target diseases, unless stated otherwise. Wheat leaf blotch and brown rust activity were also evaluated using track spray applications, in which case the fungicides were formulated as EC formulations, containing 0.1% Trycol 5941 in the spray solutions. Wheat plants (variety Yuma) were grown from seed in a greenhouse in 50% mineral soil/50% soil-less Metro mix until the first leaf was fully emerged, with 7-10 seedlings per pot. These plants were inoculated with an aqueous spore suspension of Puccinia triticina either prior to or after fungicide treatments. After inoculation the plants were kept in a dark dew room at 22° C. with 100% relative humidity overnight to permit spores to germinate and infect the leaf. The plants were then transferred to a greenhouse set at 24° C. for disease to develop. Fungicide formulation, application and disease assessment followed the procedures as described in the Example A.
# [1] = 24 h, 1 Day Protectant, read-out: SEPTTR 1DP disease control
# [2] = 72 h, 3 Day Curative, read-out: SEPTTR 3DC disease control
# [3] = 24 h, 1 Day Protectant, read-out: PUCCRT 1DP disease control
# [4] = 72 h, 3 Day Curative, read-out: PUCCRT 3DC disease control
SMILES,pest or weed control at 121.5 g/ha (Zymoseptoria tritici; [1]) [%],pest or weed control at 121.5 g/ha (Zymoseptoria tritici; [2]) [%],pest or weed control at 121.5 g/ha (Puccinia triticina; [3]) [%],pest or weed control at 121.5 g/ha (Puccinia triticina; [4]) [%]
"CCC[C@H]1CCCC[C@H](NC(=O)c2nccc(OC)c2OCOC(C)=O)C(=O)O[C@@H](C)[C@@H]1OCC(C)C [Cmpd 30, ((2-(((3S,8S,9R,10S)-9-isobutoxy-10-methyl-2-oxo-8-propyloxecan-3-yl)carbamoyl)-4-methoxypyridin-3-yl)oxy)methyl acetate]",< 80,< 80,> 80,< 80
COc1ccnc(C(=O)N[C@H]2COCC[C@H](OCc3ccccc3)[C@@H](OCc3ccccc3)[C@H](C)OC2=O)c1OCOC(C)=O [Compound 1],> 80,< 80,> 80,
CCCCO[C@H]1CCOC[C@H](NC(=O)c2nccc(OC)c2OCOC(C)=O)C(=O)O[C@@H](C)[C@@H]1OCc1ccccc1 [Compound 2],< 80,,> 80,> 80
CCCCO[C@H]1CCOC[C@H](NC(=O)c2nccc(OC)c2OCOC(C)=O)C(=O)O[C@@H](C)[C@@H]1OC(=O)c1ccccc1 [Compound 4],< 80,,> 80,> 80
COc1ccnc(C(=O)N[C@H]2CCCC[C@H](OCc3ccccc3)[C@@H](OCc3ccccc3)[C@H](C)OC2=O)c1OCOC(C)=O [Compound 8],> 80,> 80,> 80,> 80
COc1ccnc(C(=O)N[C@H]2CCCC[C@H](OCc3ccccc3)[C@@H](OCc3ccccc3)[C@H](C)OC2=O)c1OC(C)=O [Compound 9],> 80,> 80,> 80,< 80
COc1ccnc(C(=O)N[C@H]2CCCC[C@H](OC)[C@@H](Oc3ccccc3)[C@H](C)OC2=O)c1OCOC(C)=O [Compound 11],> 80,> 80,> 80,> 80
COc1ccnc(C(=O)N[C@H]2CCCC[C@H](OCC(C)C)[C@@H](Oc3ccccc3)[C@H](C)OC2=O)c1OCOC(C)=O [Compound 13],> 80,> 80,> 80,> 80
COc1ccnc(C(=O)N[C@H]2CCCC[C@H](OCC(C)C)[C@@H](OCC(C)C)[C@H](C)OC2=O)c1OCOC(C)=O [Compound 14],> 80,< 80,> 80,< 80
CCCCCO[C@H]1[C@H](C)OC(=O)[C@@H](NC(=O)c2nccc(OC)c2OCOC(C)=O)CCCC[C@@H]1OC(=O)c1ccccc1 [Compound 15],> 80,> 80,> 80,< 80
COc1ccnc(C(=O)N[C@H]2CCOC[C@H](Cc3ccccc3)[C@@H](OCC(C)C)[C@H](C)OC2=O)c1OCOC(C)=O [Compound 16],< 80,< 80,> 80,< 80
COc1ccnc(C(=O)N[C@H]2CCCC[C@H](Oc3ccccc3)[C@@H](Oc3ccccc3)[C@H](C)OC2=O)c1OCOC(C)=O [Compound 19],> 80,> 80,> 80,> 80
COc1ccnc(C(=O)N[C@H]2COCC[C@H](Cc3ccccc3)[C@@H](OCC(C)C)[C@H](C)OC2=O)c1OCOC(C)=O [Compound 20],< 80,> 80,> 80,> 80
COc1ccnc(C(=O)N[C@H]2COCC[C@H](Cc3ccccc3)[C@@H](OCC(C)C)[C@H](C)OC2=O)c1OC(C)=O [Compound 21],< 80,> 80,> 80,> 80
COc1ccnc(C(=O)N[C@H]2CCCC[C@H](OC)[C@@H](OC)[C@H](C)OC2=O)c1OCOC(C)=O [Compound 22],,< 80,> 80,> 80
CCCO[C@H]1CCCC[C@H](NC(=O)c2nccc(OC)c2OCOC(C)=O)C(=O)O[C@@H](C)[C@@H]1Oc1ccccc1 [Compound 23],> 80,> 80,> 80,> 80
COc1ccnc(C(=O)N[C@H]2CCCC[C@H](Cc3ccccc3)[C@@H](OCC(C)C)[C@H](C)OC2=O)c1OCOC(C)=O [Compound 24],> 80,> 80,> 80,< 80
COc1ccnc(C(=O)N[C@H]2CCCC[C@H](Oc3ccccc3)[C@@H](Oc3ccccc3)[C@H](C)OC2=O)c1OC(C)=O [Compound 25],> 80,< 80,> 80,< 80
CCCO[C@H]1CCCC[C@H](NC(=O)c2nccc(OC)c2OC(C)=O)C(=O)O[C@@H](C)[C@@H]1Oc1ccccc1 [Compound 26],> 80,> 80,> 80,> 80
COc1ccnc(C(=O)N[C@H]2CCCC[C@H](OC)[C@@H](OC)[C@H](C)OC2=O)c1OC(C)=O [Compound 27],< 80,,> 80,> 80
COc1ccnc(C(=O)N[C@H]2CCCC[C@H](OC)[C@@H](OCC(C)C)[C@H](C)OC2=O)c1OC(C)=O [Compound 28],< 80,> 80,> 80,> 80
COc1ccnc(C(=O)N[C@H]2CCCC[C@@H]3OC(C)(C)O[C@H]3[C@H](C)OC2=O)c1OC(C)=O [Compound 29],< 80,> 80,> 80,> 80
CCC[C@H]1CCCC[C@H](NC(=O)c2nccc(OC)c2OCOC(C)=O)C(=O)O[C@@H](C)[C@@H]1OC(=O)C(C)C [Compound 31],< 80,< 80,> 80,< 80
COc1ccc(CO[C@H]2[C@H](C)OC(=O)[C@@H](NC(=O)c3nccc(OC)c3OCOC(C)=O)CCOC[C@@H]2OCc2ccc(OC)cc2)cc1 [Compound 32],,< 80,,< 80
COc1ccnc(C(=O)N[C@H]2CCCC[C@@H]3OC(C)(C)O[C@H]3[C@H](C)OC2=O)c1OCOC(C)=O [Compound 33],< 80,> 80,> 80,> 80
COc1ccnc(C(=O)N[C@H]2CCCC[C@H](OC)[C@@H](OC3CCCC3)[C@H](C)OC2=O)c1OCOC(C)=O [Compound 34],< 80,> 80,> 80,> 80
COc1ccnc(C(=O)N[C@H]2CCCC[C@H](OC3CCCC3)[C@@H](OC)[C@H](C)OC2=O)c1OCOC(C)=O [Compound 35],,,> 80,< 80
COc1ccnc(C(=O)N[C@H]2CCCC[C@H](Oc3ccccc3)[C@@H](OC3CCCC3)[C@H](C)OC2=O)c1OCOC(C)=O [Compound 36],< 80,< 80,> 80,> 80
COc1ccnc(C(=O)N[C@H]2CCOC[C@H](OCC(C)C)[C@@H](OCC(C)C)[C@H](C)OC2=O)c1OCOC(C)=O [Compound 43],,,> 80,< 80
